The values below come from US11401516B2, “Channel modulators” (AUCKLAND UNISERVICES LIMITED, priority 2014, dated 2022).

One data set deals with T1, Connexin43 hemichannel (Homo sapiens, UniProt P17302).
T1 construct: expressed in transfected cells; host or cells: HeLa (connexin-deficient parent), Cx43IRESeGFP, puromycin selection
The data set is described as follows: Whole-cell voltage clamp, Connexin43 transfected HeLa cells. Type of data set: cell-based. To be noted: voltage steps; peptide5 100 μM; carbenoxolone and LaCl3 concentration not stated. On the procedure: Whole-cell voltage clamp studies were conducted on connexin deficient HeLa cells, Connexin43 transfected HeLa cells and isolated human cerebral microvascular endothelial cells (hCMVEC).
HeLa cells were seeded at 0.045×10^6 cells/mL on 18 mm rat collagen I coated coverslips 16-24 hours before each experiment. Cx43IRESeGFP HeLa cells were cultured overnight in DMEM supplemented with 10% FCS and 1 μg/mL Puromycin at 37° C. at 95% O2 and 5% CO2. Control Cx-deficient cells were maintained in DMEM supplmented with 10% FCS. Coverslips were transferred to a chamber continuously perfused with modified Krebs-Ringer solution containing (in mM): 140 NaCl, 5.4 KCl, 1 MgCl2, 10 mM Hepes and pH adjusted to 7.4 at room temperature. The internal pipette solution contained (in mM): 130 KCl, 10 sodium aspartate, 0.26 CaCl2, 2 EGTA, 5 tetraethylammonium-Cl, 1 MgCl, 3 MgATP, and 5 Hepes at pH 7.2; and was kept on ice. The solutions are described in Contreras J E, et al., Cell Communication and Adhesion (2003), 10:245-249. To resolve single currents in whole-cell configuration, cells with low capacitance (<10 pF) and high resistance pipettes ([…]) with a seal resistance of (>5 GOhm) were selected for recording and analysis.

The test system of a further data set is HUVEC cells. The data set is described as follows: Transfection uptake of FAM-labelled oligonucleotides (FACS). The data set is classed as cell-based, Human. To be noted: 200 nM. On the procedure: HUVEC cells (C-003-5C, Invitrogen, primary Human endothelial cells) were used to test the transfection of chemically modified backbones of the Connexin 43 antisense compounds. Cells were transfected with Oligofectamine® using the manufacturer's recommended protocol for 4 hr and 12 hr in serum-free media. The antisense concentration was 200 nM in buffer. The antisense compounds used had unmodified (O) or fully modified (PTO) backbones, where the modified backbone had all thiophosphoriate linkages between the nucleotides. The unmodified sequence SEQ1-O would have the sequence […] NO: 23). The modified sequence SEQ1-PTO would have the sequence of: [NT] NO: 23), wherein the subscript “s” indicates the thiophosphoriate linkage between the two nucleotides. […] All sequences for the transfection study were labelled with FAM for fluorescence labelling. The transfected cells were analyzed by FACS (fluorescent-activated cell sorting), and confocal microscopy.

The subject of a further data set is Connexin 43 RNA. As to the kind of experiment: Connexin 43 knockdown by qPCR in HUVEC. The note with it: for Avg % KD qPCR: HUVEC, phosphorothioate backbone ASN; for Absolute Difference from SEQ1 (relative knockdown): all-thiophosphoriate linkages in the entire backbone; for dose response of Cxn43 knockdown, qPCR: 200-600 nM. Type of data set: cell-based, human. On the procedure:
Next, the knockdown efficiency of Connexin 43 in HUVEC cells was measured by qPCR for an oligonucleotide series with the same sequence but with a different number of PTO-modifications on the oligonucleotide backbone. The sequences tested were SEQ1 and SEQ4, with none, 2, or all phosphorthioate linkages in the backbone. For the sequences with two phosphorthioate linkages in the backbone, the phosphorthioate linkages were between the last nucleotide linkages at the terminus of each side of the sequence. The sequences are Gs[…]sT (SEQ ID NO: 23) and As[…]sC (SEQ ID NO: 5) for SEQ1-2PTO and SEQ4-2PTO, respectively. […]
(§1) Cells were grown in 6-well culture plates for 24 hr and reached 50-70% confluence prior to antisense oligonucleotide treatments using the transfection agent Oligofectamine®. Cells were harvested for qPCR and Western blotting analysis between 4 and 24 hr after transfection.
qPCR was performed to determine the efficacy of antisense oligonucleotide in knockdown of the target RNA. Briefly, total RNA was extracted from the cells after transfection. The isolated RNA was DNAse-treated and reverse-transcribed into cDNA. The cDNA subsequently underwent qPCR thermal cycling. The Ct values (the number of cycles required for the fluorescent intensity to cross the set threshold) obtained from the qPCR were converted into relative abundance of RNA. The RNA level of the target was normalised to selected reference genes and compared between antisense oligonucleotide versus vehicle treatments.
(§2) The cell screening experiments were performed using HUVEC cells (human umbilical vein endothelial cells; Invitrogen), with two biological replicates in each experiment. The identifiers of “CODA” are SEQ1, and “LP2” are SEQ4.
Background: Quantitative PCR measures a nucleic acid by following its amplification.

For the next data set, the system named is Connexin 43. The data set is described as follows: Connexin 43 knockdown by Western blot in HUVEC. Type of data set: cell-based, human. To be noted: phosphorothioate backbone ASN. On the procedure: as §1
Western blotting was also performed to determine the efficacy of antisense oligonucleotide in knockdown of the target protein. Briefly, total proteins were extracted from the cells after transfection and the concentration was determined by performing bicinchoninic acid (BCA) assay. Subsequently, equal amounts of total protein were loaded for gel electrophoresis and blotted onto nitrocellulose membranes, which were then probed with a specific antibody against the target protein. Densitometry was used to quantify the band intensity of the target protein. Knockdown was quantified by comparing antisense oligonucleotide versus vehicle treatments.
as §2
(In general: Immunoblotting shows a protein as a band on a membrane.)

The conditions of data set [1]: cited from earlier work; for incidence of new geographic atrophy: treated monthly, average 23 injections over two years.
The mark [2] stands for this setting: Table 66, 4 hr post-transfection.
Where [3] appears, read: Table 67, 4 hr post-transfection.
Where [4] appears, read: unmodified sequences (no phosphorthioate linkages).

T1 sequence (P17302 2-382 limits assumed): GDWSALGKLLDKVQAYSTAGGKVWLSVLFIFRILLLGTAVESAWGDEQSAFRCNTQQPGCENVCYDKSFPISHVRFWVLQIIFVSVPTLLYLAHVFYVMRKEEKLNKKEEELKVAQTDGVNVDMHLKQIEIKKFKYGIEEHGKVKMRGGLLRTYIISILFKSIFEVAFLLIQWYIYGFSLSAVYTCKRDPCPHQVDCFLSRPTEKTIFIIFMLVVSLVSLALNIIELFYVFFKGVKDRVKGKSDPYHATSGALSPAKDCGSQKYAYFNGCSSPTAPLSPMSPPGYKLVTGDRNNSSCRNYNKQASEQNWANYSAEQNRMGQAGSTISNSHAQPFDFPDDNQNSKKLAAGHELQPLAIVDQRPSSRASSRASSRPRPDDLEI

Consider `[Cl][La]([Cl])[Cl]` [LaCl3], for which, on Connexin43 hemichannel, the Connexin43 hemichannel activity result is given as “virtually complete hemichannel block”.
For the compound “ACCCATGTTGCCTGGGCACC (chemistry not fully specified) [SEQ4-Q]”, in the data set with HUVEC cells (setting [2]), the “% transfected, M2” value is on record as 64%; the “% transfected, M3” value is 34%; the “% transfected, M4” value is on record as 1%; the “% transfected, Total” value was determined as 99%. In addition, in the data set on HUVEC cells (setting [3]), the “% transfected, M2” value is 55%; the “% transfected, M3” value is 41%; the “% transfected, M4” value is recorded as 2%; the “% transfected, Total” value worked out at 99%.
With “AGGCTGTGCATGGGAGTTAG (chemistry not given here) [SEQ7/1233]”, in the data set on Connexin 43 RNA, the “Avg % KD qPCR” value was found to be 82% and the “Absolute Difference from SEQ1 (relative knockdown)” value is on record as 17. In addition, the “Avg % KD WB” value in the data set on Connexin 43 came to 75%.
Turning to “ATATGATCTGCAGGACCCAG (chemistry not given here) [SEQ9/50506]”, in the data set on Connexin 43 RNA, the “Avg % KD qPCR” value came out at 79% and the “Absolute Difference from SEQ1 (relative knockdown)” value stood at 14. Moreover, the “Avg % KD WB” value in the data set with Connexin 43 worked out at 73%.
“AsCsCsCsAsTsGsTsTsGsCsCsTsGsGsGsCsAsCsC (ACCCATGTTGCCTGGGCACC; chemistry not fully specified) [SEQ4-PTO]”: in the data set on HUVEC cells (setting [2]), the “% transfected, M2” value is listed as 9%; the “% transfected, M3” value is recorded as 44%; the “% transfected, M4” value was found to be 48%; the “% transfected, Total” value amounted to 100%. In the data set with HUVEC cells (setting [3]), the “% transfected, M2” value was 9%; the “% transfected, M3” value is listed as 44%; the “% transfected, M4” value is 47%; the “% transfected, Total” value was 99%.
For Avastin: VEGF antagonist antibody, the “incidence of new geographic atrophy” value in data set [1] is 19.5%.
For “CAGAAGCGCACATGAGAGAT (chemistry not given here) [SEQ8/47001]”, in the data set on Connexin 43 RNA, the “Avg % KD qPCR” value was found to be 81% and the “Absolute Difference from SEQ1 (relative knockdown)” value came to 15. The “Avg % KD WB” value in the data set with Connexin 43 is 75%.
In the case of “CCAGGCTGACTCAACCGCTG (chemistry not given here) [SEQ4/37501]”, in the data set on Connexin 43 RNA, the “Avg % KD qPCR” value stood at 87% and the “Absolute Difference from SEQ1 (relative knockdown)” value worked out at 22. The “dose response of Cxn43 knockdown, qPCR” value in the data set on Connexin 43 RNA (setting [4]) is reported as “exhibited a dose response”. Moreover, in the data set with Connexin 43, the “Avg % KD WB” value stood at 82%.
As to “CGCTGGTCCACAATGGCTAG (chemistry not given here) [SEQ6/133705]”, in the data set with Connexin 43 RNA, the “Avg % KD qPCR” value stood at 83% and the “Absolute Difference from SEQ1 (relative knockdown)” value was determined as 18. In addition, the “dose response of Cxn43 knockdown, qPCR” value with Connexin 43 RNA (setting [4]) is reported as “exhibited a dose response”. For the same compound, the “Avg % KD WB” value in the data set with Connexin 43 was determined as 75%.
As to “GAAGCGCACATGAGAGATTG (chemistry not given here) [SEQ11]”, the “Absolute Difference from SEQ1 (relative knockdown)” value in the data set with Connexin 43 RNA came to 20.
For the compound “GCTGGCTCTGCTTGAAGGTC (chemistry not given here) [SEQ 5/133705]”, in the data set with Connexin 43 RNA, the “Avg % KD qPCR” value is 84% and the “Absolute Difference from SEQ1 (relative knockdown)” value stood at 19. Also, the “Avg % KD WB” value with Connexin 43 is on record as 75%.
Regarding “GTAATTGCGGCAAGAAGAATTGTTTCTGT (DNA, phosphodiester; FAM fluorescent label attached, position not given here) [SEQ1-O]”, in the data set on HUVEC cells (setting [2]), the “% transfected, M2” value worked out at 56%; the “% transfected, M3” value was found to be 42%; the “% transfected, M4” value was found to be 2%; the “% transfected, Total” value is 99%. Further, in the data set on HUVEC cells (setting [3]), the “% transfected, M2” value was 56%; the “% transfected, M3” value was 40%; the “% transfected, M4” value was determined as 2%; the “% transfected, Total” value was 98%.
As to “GTAATTGCGGCAAGAAGAATTGTTTCTGTC (chemistry not given here) [SEQ1]”, the “knockdown effect on Cxn43, qPCR” value with Connexin 43 RNA (unmodified sequences (no phosphorthioate linkages), 4 hr, all concentrations (200-600 nM)) was no more than 10%.
Consider “GsTsAsAsTsTsGsCsGsGsCsAsAsGsAsAsGsAsAsTsTsGsTsTsTsCsTsGsT (GTAATTGCGGCAAGAAGAATTGTTTCTGT; chemistry not fully specified) [SEQ1-PTO]”, for which, in the data set with HUVEC cells (setting [2]), the “% transfected, M2” value is 26%; the “% transfected, M3” value was 63%; the “% transfected, M4” value is 11%; the “% transfected, Total” value is given as 100%. In the data set with HUVEC cells (setting [3]), the “% transfected, M2” value came to 15%; the “% transfected, M3” value was found to be 49%; the “% transfected, M4” value is on record as 35%; the “% transfected, Total” value is listed as 100%.
As for Lucentis: VEGF antagonist antibody, the new geographic atrophy in data set [1] (treated as needed) is 16%. The “incidence of new geographic atrophy” value in data set [1] is listed as 29.4%.
“TCTCCCCAGGCTGACTCAAC (chemistry not given here) [SEQ10/37503]”: in the data set with Connexin 43 RNA, the “Avg % KD qPCR” value is reported as 77% and the “Absolute Difference from SEQ1 (relative knockdown)” value was determined as 12. In the data set with Connexin 43, the “Avg % KD WB” value was determined as 75%.
